Consider 11 compounds from patent US20170233414A1, “DERIVATIVES OF BODIPY” (OREGON HEALTH & SCIENCE UNIVERSITY, priority 2016, published 2017).

Structures are written as SMILES.

This series in a line: Fluorescence properties and quantum yield measurements of the BAA library. The series is classed as physicochemical. Also on record: FWHM (full-width-at half max): unit not given here. The conditions noted are these: anhydrous DMSO; for λmax ABS / λmax EM: polystyrene 96 well plate; for FWHM (full-width-at half max): emission; for φfl (quantum yield): relative to reference fluorophore at three concentrations. As for the experimental part: General Instruments. Synthesized sample purification was performed with an Agilent 1260 Infinity HPLC utilizing a C18 column (150mm×21.2 mm). MS (HRMS, ESI) spectra data was collected with an Agilent 6244 TOF LC/MS with diode array detector VL+ and C18 column (4.6 mm×50 mm). Absorbance and fluorescence data were measured on a SpectraMax M5 Microplate reader. NMR spectra, ^1H and ^13C, were recorded on a Bruker ARK400 spectrometer. BAA microscopy screening in cells for organelle specificity and signal-to-background ratio was completed with an Axio Zeiss Light Microscope and 63× oil immersion objective.
Fluorescence Properties and Quantum Yield Measurements. Spectroscopic characterizations were performed in anhydrous DMSO in polystyrene 96 well plate. Analysis included the maximum absorbance wavelength, maximum fluorescence emission wavelength, full-width-at half max, and quantum yield. Quantum yields (φfl) were determined by comparing the area under the emission spectrum of the BAA compound to a reference fluorophore solution at three concentrations using equation 1, where Grad represents the gradient from the plots of integrated fluorescence intensity vs absorbance at three concentrations and q is the refractive index of the solvent. Fluorescein in 0.1 M NaOH (φfl=0.91)^3 was the reference for samples with a max absorbance up to 510 nm, where an excitation of 470 nm was used with the emission integrated between 490 to 800 nm. Rhodamine B in ethanol (φfl=0.70) was the reference for samples with a max absorbance between 511-595 nm, where an excitation of 525 nm was used with the emission integrated between 545 to 800 nm. Cresyl violet in methanol (φfl=0.54)^4 was the reference for samples with a max absorbance above 595 nm, where an excitation of 570 nm was used with the emission integrated between 590 to 800 nm.

With `COc1cc(C=CC2=[N+]3C(=Cc4ccc(C(=Cc5ccc(OCc6cccc(C(F)(F)F)c6)c(OC)c5)CC(=O)O)n4[B-]3(F)F)C(C)=C2)ccc1OCc1cccc(C(F)(F)F)c1` [BAA-44b], the “Stokes Shift” value worked out at 18 nm, the “λmax ABS” value turned out to be 582 nm, the “λmax EM” value came out at 600 nm and the “FWHM (full-width-at half max)” value was 43. The “φfl (quantum yield)” value was determined as 0.28.
For the compound `CCOc1ccc(C=CC2=[N+]3C(=Cc4ccc(CCC(=O)O)n4[B-]3(F)F)C(C)=C2)c(OCC)c1` [BAA-47a], the “Stokes Shift” value came out at 22 nm, the “λmax ABS” value is 589 nm, the “λmax EM” value was determined as 611 nm and the “FWHM (full-width-at half max)” value is listed as 47. The “φfl (quantum yield)” value was 0.33.
Turning to `CC1=CC(C=Cc2c[nH]c3ccc(OCc4ccccc4)cc23)=[N+]2C1=Cc1ccc(CCC(=O)O)n1[B-]2(F)F` [BAA-48a], the “Stokes Shift” value is given as 38 nm, the “λmax ABS” value is listed as 603 nm, the “λmax EM” value is reported as 641 nm and the “FWHM (full-width-at half max)” value was 60. The “φfl (quantum yield)” value was determined as 0.45.
In the same order, the values of `CC1=CC(C=Cc2cc(-n3ccnc3)ccc2C)=[N+]2C1=Cc1ccc(CCC(=O)O)n1[B-]2(F)F` [BAA-50a] are 10 nm, 571 nm, 581 nm, 33 and 0.28.
In the same order, the values of `CC1=CC(C=Cc2cc(-n3ccnc3)ccc2C)=[N+]2C1=Cc1ccc(C(=Cc3cc(-n4ccnc4)ccc3C)CC(=O)O)n1[B-]2(F)F` [BAA-50b] are 9 nm, 572 nm, 581 nm, 34 and 0.12.
In the same order, the values of `CCOc1ccc2[nH]c(=O)cc(C=CC3=[N+]4C(=Cc5ccc(CCC(=O)O)n5[B-]4(F)F)C(C)=C3)c2c1` [BAA-51a] are 13 nm, 594 nm, 607 nm, 42 and 0.06.
`C#CCOc1c(Cl)cc(C=CC2=[N+]3C(=Cc4ccc(CCC(=O)O)n4[B-]3(F)F)C(C)=C2)cc1OC` [BAA-52a]: the “Stokes Shift” value came to 8 nm, the “λmax ABS” value is 577 nm, the “λmax EM” value is 585 nm and the “FWHM (full-width-at half max)” value stood at 51. Further, the “φfl (quantum yield)” value is given as 0.04.
In the case of `COc1cc(C=CC2=[N+]3C(=Cc4ccc(CCC(=O)O)n4[B-]3(F)F)C(C)=C2)cc(OC)c1` [BAA-53a], the “Stokes Shift” value came out at 11 nm, the “λmax ABS” value is 570 nm, the “λmax EM” value amounted to 581 nm and the “FWHM (full-width-at half max)” value amounted to 30. Further, the “φfl (quantum yield)” value is recorded as 0.44.
In the same order, the values of `CC1=CC(/C=C/c2ccc(Cl)c(F)c2)=[N+]2C1=Cc1ccc(CCC(=O)O)n1[B-]2(F)F` [BAA-54a] are 8 nm, 573 nm, 581 nm, 46 and 0.04.
`CC1=CC(C=Cc2cnn(-c3ccccc3)c2C)=[N+]2C1=Cc1ccc(CCC(=O)O)n1[B-]2(F)F` [BAA-55a]: the “Stokes Shift” value is 16 nm, the “λmax ABS” value is listed as 576 nm, the “λmax EM” value is listed as 592 nm and the “FWHM (full-width-at half max)” value worked out at 35. Further, the “φfl (quantum yield)” value is on record as 0.75.
In the same order, the values of `CC1=CC(C=Cc2cnn(-c3ccccc3)c2C)=[N+]2C1=Cc1ccc(C(=Cc3cnn(-c4ccccc4)c3C)CC(=O)O)n1[B-]2(F)F` [BAA-55b] are 16 nm, 575 nm, 591 nm, 38 and 0.75.
